Legend:
[1] = test system: Tg2576 mice; test: cerebral Aβ levels by ELISA in luteolin-treated Tg2576 mice; format: in vivo; conditions: 20 mg/kg i.p. daily for 30 days
Procedure: Sixteen (8♂/8♀) Tg2576 mice (Taconic, Germantown, N.Y.) were used; 8 mice received luteolin, and the other 8 received phosphate buffered saline (PBS). Beginning at 8 months of age, Tg2576 mice were intraperitoneally injected with luteolin (20 mg/kg) or PBS daily for 30 days based on previously described methods. These mice were then sacrificed at 9 months of age for analyses of Aβ levels and Aβ load in the brain according to previously described methods. Animals were housed and maintained in the College of Medicine Animal Facility at the University of South Florida (USF), and all experiments were in compliance with protocols approved by the USF Institutional Animal Care and Use Committee.
Eight month-old Tg2576 mice were treated with 20 mg/kg luteolin administered by daily intraperitoneal injection for 30 days to validate the above findings in vivo. […] Phospho-GSK-3α/β-positive neuronal cells were examined under bright-field using an Olympus BX-51 microscope.
Brain homogenates were immunoprecipitated by PS1 antibody and probed for APP to confirm the proposed mechanism. […] To assess this decrease, ELISA was conducted on both soluble and insoluble Aβ1-40, 42.

[2] = test system: GSK-3α/β; test: Western blot of phosphorylated GSK-3α/β forms in SweAPP N2a cells; format: cell-based, murine; conditions: 20 μM
Procedure: (§1) Cultured cells or mouse brain were lysed in ice-cold lysis buffer described above, and an aliquot corresponding to 50 μg of total protein was electrophoretically separated using 12% Tris-HCl or 16.5% Tris-tricine gels. Electrophoresed proteins were then transferred to PVDF membranes, washed in dH2O, and blocked for 1 hr at ambient temperature in Tris-buffered saline (TBS; Bio-Rad) containing 5% (w/v) non-fat dry milk. After blocking, membranes were hybridized for 1 hr at ambient temperature with various primary antibodies. Membranes were then washed 3× for 5 min each in dH2O and incubated for 1 hr at ambient temperature with the appropriate HRP-conjugated secondary antibody (1:1,000). Antibodies were obtained against the amino-terminus and carboxyl-terminus of PS1 (Chemicon, Temecula, Calif.), amino-terminus and carboxyl-terminus of APP (22C11), actin (Roche, Basel, Switzerland), Aβ (6E10, 48G) (Signet Laboratories, Dedham, Mass.), phosphor-GSK3α (ser^21, clone BK202) (Upstate, Lake Placid, N.Y.), phospho-GSK3α/β (pTyr^279/216) (Sigma), phospho-GSK-3β (Ser^9) (Sigma) and total GSK-3α/β (Sigma). All antibodies were diluted in TBS containing 5% (w/v) of non-fat dry milk. Blots were developed using the luminol reagent (Pierce Biotechnology). Densitometric analysis was done as previously described using a FluorS Multiimager with Quantity One™ software (39). […] Antibodies used for Western blot included the APP-carboxyl-terminal antibody (1:50)), amino-terminal APP antibody (clone 22C11), or 6E10 (1:1,000), or actin antibody (1:1,500; as an internal reference control). γ-secretase activity was quantified in cell lysates using available kits based on secretase-specific peptides conjugated to fluorogenic reporter molecules.
The effect luteolin had on a variety of proteins related to and/or required for proper functioning of the γ-secretase complex was evaluated to establish the mechanism whereby luteolin modulates γ-secretase activity and subsequent Aβ generation. […]

[3] = molecular target: T1, γ-secretase (Mus musculus, UniProt P49769); test: fluorometric assay for γ-secretase cleavage activity in SweAPP N2a cell lysates; format: cell-based, murine; conditions: relative to untreated control
T1 construct: endogenous in cells; host or cells: SweAPP N2a cells (lysates of treated cells)
Procedure: as §1, with “All antibodies were diluted in TBS containing 5% (w/v) of non-fat dry milk. Blots were developed using the luminol reagent (Pierce Biotechnology).” left out
Due to the implications on γ-secretase activity, luteolin's effect on SweAPP N2a cells was analyzed using a fluorometric assay for γ-cleavage.
Cultured cells or mouse brain were lysed in ice-cold lysis buffer described above, and an aliquot corresponding to 50 μg of total protein was electrophoretically separated using 12% Tris-HCl or 16.5% Tris-tricine gels. […] Densitometric analysis was done as previously described using a FluorS Multiimager with Quantity One™ software. […]

**Q.** With `O=c1cc(-c2ccc(O)c(O)c2)oc2cc(O)cc(O)c12` [luteolin] as the compound, how does the “reduction of soluble Aβ1-40 in brain homogenates” value [1] read?
**A.** The value was 25%.

**Q.** And the “reduction of soluble Aβ1-42 in brain homogenates” value [1]?
**A.** Its value is 49%.

**Q.** What about the “overall expression of GSK3-α or β” value ([2]; Western blot) of the same compound?
**A.** The value was “no significant changes”.

**Q.** What about the “selectivity of GSK-3α over GSK-3β inactivation” value ([2]; time course) of the same compound?
**A.** Its value is “selectively inactivates GSK-3α isoforms over β isoforms”.

**Q.** And the γ-secretase cleavage activity [3]?
**A.** Its γ-secretase cleavage activity is “lowered γ-secretase cleavage activity in both a dose and time dependent fashion”.
